Test results published in patent publication US10668040B2, “Treatment of urea cycle disorders in neonates and infants” (Horizon Therapeutics, LLC, priority 2017, dated 2020).

Tested on: UCD patients
Experiment: Example 3: TEAEs, serious and non-serious adverse events
Assay type: in vivo
Source text: Sixteen newborn infants aged 0 to 27 days, and 10 infants and toddlers aged 28 days to 23 months received RAVICTI Oral Liquid administered just prior to breastfeeding or intake of formula or food. The recommended dosing regimen was 3-6 times per day depending on feeding schedule.
Number of Subjects with Treatment-Emergent Adverse Events (TEAEs), Serious TEAEs, Deaths, and Discontinuations Due to TEAEs
An adverse event (AE) is any untoward medical occurrence, whether or not the event is considered related to the study drug. A serious AE is any AE that: results in death; is life threatening; requires hospitalization or prolongation of existing hospitalization; results in disability/incapacity; is a congenital anomaly/birth defect; is an important medical event. TEAEs are defined as AEs with an onset date on or after the first dose of study medication until study discontinuation. The Investigator assessed the causal relationship of each TEAE to the study drug as not related, possibly related, or probably related. From the first dose of study treatment through 30 days after the final dose (mean [SD] duration of treatment was 9.13 [6.838] months).

O=C(CCCc1ccccc1)OCC(COC(=O)CCCc1ccccc1)OC(=O)CCCc1ccccc1 [RAVICTI, benzenebutanoic acid, 1′,1″-(1,2,3-propanetriyl) ester]
0: Number of Deaths (All Causes) (Age 0 to <2 Months)
1: Number of Deaths (All Causes) (Age 2 Months to <2 Years)
0/2: Serious AE Vomiting: Occurrences causally related to treatment/all (Age 0 to <2 Months) | Serious AE Apnoeic Attack: Occurrences causally related to treatment/all (Age 2 Months to <2 Years) | Serious AE Cyanosis: Occurrences causally related to treatment/all (Age 2 Months to <2 Years)
0/7: Serious AE Hyperammonaemia: Occurrences causally related to treatment/all (Age 0 to <2 Months)
0/0: Serious AE Ammonia Increased: Deaths causally related to treatment/all (Age 0 to <2 Months) | Serious AE Ammonia Increased: Occurrences causally related to treatment/all (Age 0 to <2 Months) | Serious AE Apnoeic Attack: Deaths causally related to treatment/all (Age 0 to <2 Months) | Serious AE Apnoeic Attack: Occurrences causally related to treatment/all (Age 0 to <2 Months) | Serious AE Asthma: Deaths causally related to treatment/all (Age 0 to <2 Months) | Serious AE Asthma: Occurrences causally related to treatment/all (Age 0 to <2 Months) | Serious AE Atelectasis: Deaths causally related to treatment/all (Age 0 to <2 Months) | Serious AE Bacteraemia: Deaths causally related to treatment/all (Age 0 to <2 Months) | Serious AE Cellulitis: Deaths causally related to treatment/all (Age 0 to <2 Months) | Serious AE Croup infectious: Deaths causally related to treatment/all (Age 0 to <2 Months) | Serious AE Cyanosis: Deaths causally related to treatment/all (Age 0 to <2 Months) | Serious AE Cyanosis: Occurrences causally related to treatment/all (Age 0 to <2 Months) | Serious AE Dehydration: Deaths causally related to treatment/all (Age 0 to <2 Months) | Serious AE Device related infection: Deaths causally related to treatment/all (Age 0 to <2 Months) | Serious AE Feeding Disorder: Deaths causally related to treatment/all (Age 0 to <2 Months) | Serious AE Gastroenteritis: Deaths causally related to treatment/all (Age 0 to <2 Months) | Serious AE Gastroenteritis: Occurrences causally related to treatment/all (Age 0 to <2 Months) | Serious AE Hyperammonaemia: Deaths causally related to treatment/all (Age 0 to <2 Months) | Serious AE Influenza: Deaths causally related to treatment/all (Age 0 to <2 Months) | Serious AE Influenza: Occurrences causally related to treatment/all (Age 0 to <2 Months) | Serious AE Lethargy: Deaths causally related to treatment/all (Age 0 to <2 Months) | Serious AE Medical device site infection: Deaths causally related to treatment/all (Age 0 to <2 Months) | Serious AE Meningitis bacterial: Deaths causally related to treatment/all (Age 0 to <2 Months) | Serious AE Neutropenia: Deaths causally related to treatment/all (Age 0 to <2 Months) | Serious AE Peritonitis: Deaths causally related to treatment/all (Age 0 to <2 Months) | Serious AE Peritonitis: Occurrences causally related to treatment/all (Age 0 to <2 Months) | Serious AE Pneumatosis intestinalis: Deaths causally related to treatment/all (Age 0 to <2 Months) | Serious AE Pneumatosis intestinalis: Occurrences causally related to treatment/all (Age 0 to <2 Months) | Serious AE Pyrexia: Deaths causally related to treatment/all (Age 0 to <2 Months) | Serious AE Pyrexia: Occurrences causally related to treatment/all (Age 0 to <2 Months) | Serious AE Respiratory syncytial virus infection: Deaths causally related to treatment/all (Age 0 to <2 Months) | Serious AE Rhinovirus infection: Deaths causally related to treatment/all (Age 0 to <2 Months) | Serious AE Rhinovirus infection: Occurrences causally related to treatment/all (Age 0 to <2 Months) | Serious AE Status asthmaticus: Deaths causally related to treatment/all (Age 0 to <2 Months) | Serious AE Status asthmaticus: Occurrences causally related to treatment/all (Age 0 to <2 Months) | Serious AE Tracheitis: Deaths causally related to treatment/all (Age 0 to <2 Months) | Serious AE Upper respiratory tract infection: Deaths causally related to treatment/all (Age 0 to <2 Months) | Serious AE Urinary tract infection: Deaths causally related to treatment/all (Age 0 to <2 Months) | Serious AE Viral infection: Deaths causally related to treatment/all (Age 0 to <2 Months) | Serious AE Viral upper respiratory tract infection: Deaths causally related to treatment/all (Age 0 to <2 Months) | Serious AE Viral upper respiratory tract infection: Occurrences causally related to treatment/all (Age 0 to <2 Months) | Serious AE Vomiting: Deaths causally related to treatment/all (Age 0 to <2 Months) | Serious AE Ammonia Increased: Deaths causally related to treatment/all (Age 2 Months to <2 Years) | Serious AE Apnoeic Attack: Deaths causally related to treatment/all (Age 2 Months to <2 Years) | Serious AE Asthma: Deaths causally related to treatment/all (Age 2 Months to <2 Years) | Serious AE Atelectasis: Deaths causally related to treatment/all (Age 2 Months to <2 Years) | Serious AE Atelectasis: Occurrences causally related to treatment/all (Age 2 Months to <2 Years) | Serious AE Bacteraemia: Deaths causally related to treatment/all (Age 2 Months to <2 Years) | Serious AE Bacteraemia: Occurrences causally related to treatment/all (Age 2 Months to <2 Years) | Serious AE Cellulitis: Deaths causally related to treatment/all (Age 2 Months to <2 Years) | Serious AE Cellulitis: Occurrences causally related to treatment/all (Age 2 Months to <2 Years) | Serious AE Croup infectious: Deaths causally related to treatment/all (Age 2 Months to <2 Years) | Serious AE Cyanosis: Deaths causally related to treatment/all (Age 2 Months to <2 Years) | Serious AE Dehydration: Deaths causally related to treatment/all (Age 2 Months to <2 Years) | Serious AE Dehydration: Occurrences causally related to treatment/all (Age 2 Months to <2 Years) | Serious AE Device related infection: Deaths causally related to treatment/all (Age 2 Months to <2 Years) | Serious AE Device related infection: Occurrences causally related to treatment/all (Age 2 Months to <2 Years) | Serious AE Feeding Disorder: Deaths causally related to treatment/all (Age 2 Months to <2 Years)
0/1: Serious AE Atelectasis: Occurrences causally related to treatment/all (Age 0 to <2 Months) | Serious AE Bacteraemia: Occurrences causally related to treatment/all (Age 0 to <2 Months) | Serious AE Cellulitis: Occurrences causally related to treatment/all (Age 0 to <2 Months) | Serious AE Croup infectious: Occurrences causally related to treatment/all (Age 0 to <2 Months) | Serious AE Dehydration: Occurrences causally related to treatment/all (Age 0 to <2 Months) | Serious AE Device related infection: Occurrences causally related to treatment/all (Age 0 to <2 Months) | Serious AE Feeding Disorder: Occurrences causally related to treatment/all (Age 0 to <2 Months) | Serious AE Lethargy: Occurrences causally related to treatment/all (Age 0 to <2 Months) | Serious AE Medical device site infection: Occurrences causally related to treatment/all (Age 0 to <2 Months) | Serious AE Meningitis bacterial: Occurrences causally related to treatment/all (Age 0 to <2 Months) | Serious AE Neutropenia: Occurrences causally related to treatment/all (Age 0 to <2 Months) | Serious AE Respiratory syncytial virus infection: Occurrences causally related to treatment/all (Age 0 to <2 Months) | Serious AE Tracheitis: Occurrences causally related to treatment/all (Age 0 to <2 Months) | Serious AE Upper respiratory tract infection: Occurrences causally related to treatment/all (Age 0 to <2 Months) | Serious AE Urinary tract infection: Occurrences causally related to treatment/all (Age 0 to <2 Months) | Serious AE Viral infection: Occurrences causally related to treatment/all (Age 0 to <2 Months) | Serious AE Ammonia Increased: Occurrences causally related to treatment/all (Age 2 Months to <2 Years) | Serious AE Asthma: Occurrences causally related to treatment/all (Age 2 Months to <2 Years) | Serious AE Croup infectious: Occurrences causally related to treatment/all (Age 2 Months to <2 Years)
